Experimental data as given in PubChem BioAssay AID256 (DTP/NCI, 2004).
Where “and” joins values, the source holds several entries; their conditions need not be identical. Equal values may be shown once. Toxic doses and inconclusive results are not listed.

Tested on: CD2F1 mice, L1210 leukemia ip, survival T/C
Experiment: NCI In Vivo Anticancer Drug Screen. Data for tumor model L1210 Leukemia (intraperitoneal) in CD2F1 (CDF1) mice
Conditions: higher = longer survival
Method in brief: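 Mice carrying a transplanted tumor received test compound or vehicle alone. The value is the measurement in the treated group divided by that in the vehicle-treated control group.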

[1] = endpoint: mean survival time, dose: 25.0 mg/kg/injection, schedule: Q04DX002 (ip), vehicle: saline with Tween-80
[2] = endpoint: mean survival time, dose: 50.0 mg/kg/injection, schedule: Q04DX002 (ip), vehicle: saline with Tween-80
[3] = endpoint: mean survival time, dose: 100.0 mg/kg/injection, schedule: Q01DX009 (ip), vehicle: saline with Tween-80
[4] = endpoint: mean survival time, dose: 200.0 mg/kg/injection, schedule: Q01DX009 (ip), vehicle: saline with Tween-80
[5] = endpoint: mean survival time, dose: 100.0 mg/kg/injection, schedule: Q01DX001 (ip), vehicle: saline
[6] = endpoint: mean survival time, dose: 200.0 mg/kg/injection, schedule: Q01DX001 (ip), vehicle: saline
[7] = endpoint: mean survival time, dose: 100.0 mg/kg/injection, schedule: Q04DX003 (ip), vehicle: saline
[8] = endpoint: mean survival time, dose: 200.0 mg/kg/injection, schedule: Q04DX003 (ip), vehicle: saline
[9] = endpoint: mean survival time, dose: 400.0 mg/kg/injection, schedule: Q04DX003 (ip), vehicle: saline
[10] = endpoint: mean survival time, dose: 12.5 mg/kg/injection, schedule: Q01DX009 (ip), vehicle: saline with Tween-80

Cc1cc(Br)c2nsnc2c1[N+](=O)[O-]
T/C (endpoint: median survival time, dose: 25.0 mg/kg/injection, schedule: Q01DX009 (ip), vehicle: saline with Tween-80): 97 % of control | T/C (endpoint: median survival time, dose: 50.0 mg/kg/injection, schedule: Q01DX009 (ip), vehicle: saline with Tween-80): 100 % of control | T/C (endpoint: median survival time, dose: 100.0 mg/kg/injection, schedule: Q01DX009 (ip), vehicle: saline with Tween-80): 101 % of control | T/C (endpoint: median survival time, dose: 200.0 mg/kg/injection, schedule: Q01DX009 (ip), vehicle: saline with Tween-80): 100 % of control | T/C (endpoint: median survival time, dose: 400.0 mg/kg/injection, schedule: Q01DX009 (ip), vehicle: saline with Tween-80): 101 % of control

Nc1nc2c(ncn2-c2ccccc2Br)c(=O)[nH]1
T/C (endpoint: mean survival time, dose: 75.0 mg/kg/injection, schedule: Q01DX001 (ip), vehicle: saline with Tween-80): 101 % of control | T/C (endpoint: mean survival time, dose: 150.0 mg/kg/injection, schedule: Q01DX001 (ip), vehicle: saline with Tween-80): 100 % of control | T/C (endpoint: mean survival time, dose: 300.0 mg/kg/injection, schedule: Q01DX001 (ip), vehicle: saline with Tween-80): 101 % of control

CC(CN=Cc1ccccc1[NH-])N=Cc1ccccc1[NH-].[Ni+2] (stereo unspecified)
T/C (endpoint: mean survival time, dose: 6.25 mg/kg/injection, schedule: Q04DX002 (ip), vehicle: saline with Tween-80): 94 % of control | T/C (endpoint: mean survival time, dose: 12.5 mg/kg/injection, schedule: Q04DX002 (ip), vehicle: saline with Tween-80): 94 % of control | T/C [1]: 97 % of control | T/C [2]: 94 % of control and 109 % of control

COC(=O)N/N=C/Cc1ccccc1
T/C [3]: 93 % of control

O=C(CCCCC(=O)N/N=C/c1ccco1)N/N=C/c1ccco1
T/C [3]: 92 % of control | T/C [4]: 88 % of control | T/C (endpoint: mean survival time, dose: 400.0 mg/kg/injection, schedule: Q01DX009 (ip), vehicle: saline with Tween-80): 93 % of control

C1CCC2(CC1)OCCS2
T/C [5]: 96 % of control | T/C [6]: 94 % of control

Nc1ccc(N=Nc2ccccc2)c(N)c1
T/C [7]: 97 % of control | T/C [8]: 90 % of control | T/C [9]: 100 % of control

CC(=O)c1ccc([NH-])c([NH-])c1.[Cl][Pt+2][Cl]
T/C (endpoint: mean survival time, dose: 2.5 mg/kg/injection, schedule: Q01DX009 (ip), vehicle: distilled water + Tween-80): 102 % of control | T/C (endpoint: mean survival time, dose: 5.0 mg/kg/injection, schedule: Q01DX009 (ip), vehicle: distilled water + Tween-80): 104 % of control | T/C (endpoint: mean survival time, dose: 10.0 mg/kg/injection, schedule: Q01DX009 (ip), vehicle: distilled water + Tween-80): 109 % of control and 112 % of control | T/C (endpoint: mean survival time, dose: 20.0 mg/kg/injection, schedule: Q01DX009 (ip), vehicle: distilled water + Tween-80): 114 % of control

CC(=O)OC1OC(CO)C(OC(C)=O)C(OC(C)=O)C1OC(C)=O (stereo unspecified)
T/C (endpoint: mean survival time, dose: 100.0 mg/kg/injection, schedule: Q01DX009 (ip), vehicle: saline sonified): 97 % of control | T/C (endpoint: mean survival time, dose: 200.0 mg/kg/injection, schedule: Q01DX009 (ip), vehicle: saline sonified): 97 % of control | T/C (endpoint: mean survival time, dose: 400.0 mg/kg/injection, schedule: Q01DX009 (ip), vehicle: saline sonified): 98 % of control

CC1(C)OCC(CO)(Nc2nc(N3CC3)nc(N3CC3)n2)CO1
T/C (endpoint: mean survival time, dose: 0.31 mg/kg/injection, schedule: Q01DX009 (ip), vehicle: saline): 111 % of control | T/C (endpoint: mean survival time, dose: 0.62 mg/kg/injection, schedule: Q01DX009 (ip), vehicle: saline): 117 % of control and 112 % of control | T/C (endpoint: mean survival time, dose: 1.25 mg/kg/injection, schedule: Q01DX009 (ip), vehicle: saline): 194 % of control | T/C (endpoint: mean survival time, dose: 2.5 mg/kg/injection, schedule: Q01DX009 (ip), vehicle: saline): 186 % of control and 221 % of control and 104 % of control

NC(=O)NOCc1ccc([N+](=O)[O-])cc1
T/C (endpoint: mean survival time, dose: 100.0 mg/kg/injection, schedule: Q01DX009 (ip), vehicle: saline): 97 % of control | T/C (endpoint: mean survival time, dose: 200.0 mg/kg/injection, schedule: Q01DX009 (ip), vehicle: saline): 96 % of control | T/C (endpoint: mean survival time, dose: 400.0 mg/kg/injection, schedule: Q01DX009 (ip), vehicle: saline): 95 % of control

CC1(C(=O)O)CCCC1C(CCC(=O)O)C(=O)O (stereo unspecified)
T/C [7]: 98 % of control | T/C [8]: 96 % of control | T/C [9]: 96 % of control

O/N=C/c1ccc(O)cc1
T/C (endpoint: mean survival time, dose: 50.0 mg/kg/injection, schedule: Q04DX003 (ip), vehicle: saline with Tween-80): 94 % of control | T/C (endpoint: mean survival time, dose: 100.0 mg/kg/injection, schedule: Q04DX003 (ip), vehicle: saline with Tween-80): 91 % of control | T/C (endpoint: mean survival time, dose: 200.0 mg/kg/injection, schedule: Q04DX003 (ip), vehicle: saline with Tween-80): 97 % of control

Cc1ccc(C2=CSc3ccccc3N2)cc1
T/C (endpoint: mean survival time, dose: 100.0 mg/kg/injection, schedule: Q04DX002 (ip), vehicle: other): 104 % of control | T/C (endpoint: mean survival time, dose: 200.0 mg/kg/injection, schedule: Q04DX002 (ip), vehicle: other): 104 % of control

CCCC(C)(C)OC(=O)c1ccc([N+](=O)[O-])cc1
T/C [5]: 96 % of control | T/C [6]: 98 % of control | T/C (endpoint: mean survival time, dose: 400.0 mg/kg/injection, schedule: Q01DX001 (ip), vehicle: saline): 100 % of control

Cc1cc(N(CCOS(C)(=O)=O)CCOS(C)(=O)=O)ccc1C=Nc1ccc(C(=O)O)c(O)c1
T/C (endpoint: mean survival time, dose: 4.0 mg/kg/injection, schedule: Q01DX009 (ip), vehicle: saline with Tween-80): 118 % of control | T/C (endpoint: mean survival time, dose: 6.0 mg/kg/injection, schedule: Q01DX009 (ip), vehicle: saline with Tween-80): 111 % of control | T/C [10]: 123 % of control

C=Cc1ccc(NC(=O)CCn2cnc3c(N)ncnc32)cc1
T/C (endpoint: mean survival time, dose: 12.5 mg/kg/injection, schedule: Q01DX005 (ip), vehicle: distilled water + Tween-80): 100 % of control | T/C (endpoint: mean survival time, dose: 25.0 mg/kg/injection, schedule: Q01DX005 (ip), vehicle: distilled water + Tween-80): 102 % of control | T/C (endpoint: mean survival time, dose: 50.0 mg/kg/injection, schedule: Q01DX005 (ip), vehicle: distilled water + Tween-80): 98 % of control | T/C (endpoint: mean survival time, dose: 100.0 mg/kg/injection, schedule: Q01DX005 (ip), vehicle: distilled water + Tween-80): 98 % of control | T/C (endpoint: mean survival time, dose: 200.0 mg/kg/injection, schedule: Q01DX005 (ip), vehicle: distilled water + Tween-80): 98 % of control

O=[As](O)(c1ccccc1)C1CCCCC1O (stereo unspecified)
T/C (endpoint: mean survival time, dose: 25.0 mg/kg/injection, schedule: Q01DX001 (ip), vehicle: saline with Tween-80): 98 % of control

CC(C)C(C)/C=C\C(C)C1CCC2C3=CCC4CC(=O)CCC4(C)C3CCC21C (stereo unspecified)
T/C (endpoint: mean survival time, dose: 25.0 mg/kg/injection, schedule: Q01DX001 (ip), vehicle: Klucel (hydroxypropylcellulose) (HPC)): 103 % of control | T/C (endpoint: mean survival time, dose: 50.0 mg/kg/injection, schedule: Q01DX001 (ip), vehicle: Klucel (hydroxypropylcellulose) (HPC)): 96 % of control | T/C (endpoint: mean survival time, dose: 100.0 mg/kg/injection, schedule: Q01DX001 (ip), vehicle: Klucel (hydroxypropylcellulose) (HPC)): 103 % of control

CC1=NN(c2cccc(S(=O)(=O)O)c2)C(=O)C1N=Nc1cc(Cl)cc(S(=O)(=O)O)c1O.CC1=NN(c2cccc(S(=O)(=O)O)c2)C(=O)C1N=Nc1cc(Cl)cc(S(=O)(=O)O)c1O.[Cr] (stereo unspecified)
T/C (endpoint: median survival time, dose: 25.0 mg/kg/injection, schedule: Q01DX009 (ip), vehicle: saline): 113 % of control | T/C (endpoint: median survival time, dose: 50.0 mg/kg/injection, schedule: Q01DX009 (ip), vehicle: saline): 107 % of control | T/C (endpoint: median survival time, dose: 100.0 mg/kg/injection, schedule: Q01DX009 (ip), vehicle: saline): 101 % of control | T/C (endpoint: median survival time, dose: 200.0 mg/kg/injection, schedule: Q01DX009 (ip), vehicle: saline): 118 % of control | T/C (endpoint: median survival time, dose: 400.0 mg/kg/injection, schedule: Q01DX009 (ip), vehicle: saline): 120 % of control

CCOC(=O)/C=C/C(=O)O.[Zn+2]
T/C (endpoint: mean survival time, dose: 3.12 mg/kg/injection, schedule: Q04DX003 (ip), vehicle: saline): 100 % of control | T/C (endpoint: mean survival time, dose: 6.25 mg/kg/injection, schedule: Q04DX003 (ip), vehicle: saline): 100 % of control | T/C (endpoint: mean survival time, dose: 12.5 mg/kg/injection, schedule: Q04DX003 (ip), vehicle: saline): 100 % of control

O=C(CC1(Cl)C(F)(F)C(F)(F)C1(F)F)c1ccccc1
T/C (endpoint: mean survival time, dose: 100.0 mg/kg/injection, schedule: Q01DX001 (ip), vehicle: saline with Tween-80): 95 % of control

O=C(O)COc1ccc(Cl)cc1Cl (tested in a mixture with another compound)
T/C [10]: 89 % of control | T/C (endpoint: mean survival time, dose: 25.0 mg/kg/injection, schedule: Q01DX009 (ip), vehicle: saline with Tween-80): 94 % of control | T/C [1]: 111 % of control | T/C (endpoint: mean survival time, dose: 50.0 mg/kg/injection, schedule: Q01DX009 (ip), vehicle: saline with Tween-80): 87 % of control and 104 % of control | T/C [2]: 121 % of control | T/C [3]: 101 % of control | T/C (endpoint: mean survival time, dose: 100.0 mg/kg/injection, schedule: Q04DX002 (ip), vehicle: saline with Tween-80): 99 % of control | T/C [4]: 93 % of control | T/C (endpoint: mean survival time, dose: 200.0 mg/kg/injection, schedule: Q04DX002 (ip), vehicle: saline with Tween-80): 96 % of control
